Measurements reported in ChEMBL document CHEMBL1201862, “PubChem BioAssay data set” (2004).
Active and inactive are the calls of the source.

Experiments:
Beta-galactosidase = Beta-galactosidase (Escherichia coli, UniProt Q8VNN2); type: functional
X-box-binding protein 1 = X-box-binding protein 1 (Homo sapiens, UniProt P17861); type: functional, Cricetulus griseus;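 also: confirmatory dose-response counter-screen serving a CHOP assay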
Galanin receptor type 3 = target: T1, Galanin receptor type 3 (Homo sapiens, UniProt O60755); assay: Fluorescence-based cell-based primary high throughput dose response assay to identify antagonists of the Galanin Receptor 3 (GalR3).; type: functional
T1 sequence (O60755 whole entry): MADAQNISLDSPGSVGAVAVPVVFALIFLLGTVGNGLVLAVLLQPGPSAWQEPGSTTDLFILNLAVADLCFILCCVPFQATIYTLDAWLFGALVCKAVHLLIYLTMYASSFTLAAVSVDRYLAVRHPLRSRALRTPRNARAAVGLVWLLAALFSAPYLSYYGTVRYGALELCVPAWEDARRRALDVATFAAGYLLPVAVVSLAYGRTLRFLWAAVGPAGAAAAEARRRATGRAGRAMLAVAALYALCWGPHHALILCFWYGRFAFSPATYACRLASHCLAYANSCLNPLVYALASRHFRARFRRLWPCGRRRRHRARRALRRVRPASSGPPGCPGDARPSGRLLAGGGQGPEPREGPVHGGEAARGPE

[1] = loss of viability in HepG2 cells – cell-based, CellTiter-Glo, cherry-picked, cytotoxicity control for Shn3 inhibitor project, dose response (AID 624134); type: functional
INS1 = assay: INS-1E survival protection against cytokine death – cell-based, luminescence, retest, dose response (AID 449756); type: functional; conditions: Rattus norvegicus;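 also: cell death triggered by IL-1 beta plus TNF-alpha plus IFN-gamma mixture; protective hits raise ATP signal compared with cytokine alone wells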
[2] = non-specific 3'UTR reporter inhibition in Clone20-Shn3RL – cell-based, Renilla luciferase, cherry-picked, counter-screen for Shn3 inhibitor project, dose response (AID 624133); type: functional
[3] = HEK-293T cell viability reduction – luminescence, B-cell screen hits, cytotoxicity control for BCR NF-kB inhibitor project, dose response (AID 489021); type: functional, cell-based;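 also: HEK-293T cells carrying an NF-kB luciferase reporter; cells exposed to compound for about 14 hours before viability readout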
[4] = reduction of Shn3 3'UTR-driven luciferase in osteoblasts – cell-based, Clone20 osteoblasts, firefly luciferase, cherry-picked, dose response (AID 624132); type: functional;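 also: firefly luciferase luminescence from reporter carrying the Shn3 3'UTR in osteoblasts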
cells = type: functional, cell-based; conditions: HEK-CNG
[5] = target: T2, Endoribonuclease toxin MazF (Escherichia coli K-12, UniProt P0AE70); assay: activation of MazEF endoribonuclease cleavage – biochemical, fluorescence, single-stranded RNA substrate, uHTS hits, dose response (AID 588481); type: functional
T2 sequence (P0AE70 whole entry): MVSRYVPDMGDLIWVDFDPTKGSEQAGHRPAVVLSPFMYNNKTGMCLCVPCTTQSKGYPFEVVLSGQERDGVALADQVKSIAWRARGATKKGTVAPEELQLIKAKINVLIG

[6] = target: T2, Endoribonuclease toxin MazF; assay: substrate-only fluorescence increase artefacts – biochemical, single-stranded RNase substrate, counter-screen for MazEF activator project, dose response (AID 588502); type: functional
SUMO-activating enzyme [7] = target: T3, SUMO-activating enzyme (Homo sapiens, UniProt Q9UBT2); assay: blockers of UBC9-mediated SUMO conjugation – biochemical, AlphaScreen, SUMOylation inhibitor project, confirmation (AID 2018); type: functional
SUMO-activating enzyme [8] = target: T3, SUMO-activating enzyme; assay: blockers of SAE1/SAE2–UBC9 SUMO transfer – biochemical, HTRF, uHTS, primary screen (AID 2006); type: protein-complex assay
Estrogen receptor beta = Estrogen receptor beta (Homo sapiens, UniProt Q92731); assay: blockers of SRC-3 recruitment to ERβ – biochemical, ELISA, streptavidin-HRP readout, orthogonal assay, confirmation (AID 1060)
Protein Tat = target: T4, Protein Tat (Human immunodeficiency virus type 1 group M subtype B (isolate HXB2)(HIV-1), UniProt P04608); type: functional;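 also: tat binding to TAR RNA read out by fluorescence polarization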
T4 sequence (P04608 whole entry): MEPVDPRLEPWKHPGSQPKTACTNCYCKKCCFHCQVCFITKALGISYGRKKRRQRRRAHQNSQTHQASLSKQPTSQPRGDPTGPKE

Bcl-2-like protein 10 = target: T5, Bcl-2-like protein 10 (Homo sapiens, UniProt Q9HD36); assay: Bcl-B/TR3 peptide binding disruption – biochemical, fluorescence polarization, FITC-TR3 peptide, selectivity assay for Bfl-1 inhibitor project, primary screen (AID 748);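 also: fluorescence polarization from a fluorescein-labelled TR3 peptide binding purified Bcl-B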
T5 sequence (Q9HD36 whole entry): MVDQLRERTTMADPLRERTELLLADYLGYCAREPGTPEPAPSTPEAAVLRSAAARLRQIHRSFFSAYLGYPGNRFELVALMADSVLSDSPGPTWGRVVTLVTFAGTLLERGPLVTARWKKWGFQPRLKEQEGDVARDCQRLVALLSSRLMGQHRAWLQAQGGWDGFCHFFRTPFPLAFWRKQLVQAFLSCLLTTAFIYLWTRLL

[9] = target: T6, Glutathione-S-transferase (Schistosoma japonicum, UniProt Q26513); assay: GST-antibody interaction or FRET quenching – biochemical, TR-FRET, artefact control for Vif-APOBEC3G degradation inhibitor project, dose response (AID 1117362); type: functional
T6 sequence (Q26513 whole entry): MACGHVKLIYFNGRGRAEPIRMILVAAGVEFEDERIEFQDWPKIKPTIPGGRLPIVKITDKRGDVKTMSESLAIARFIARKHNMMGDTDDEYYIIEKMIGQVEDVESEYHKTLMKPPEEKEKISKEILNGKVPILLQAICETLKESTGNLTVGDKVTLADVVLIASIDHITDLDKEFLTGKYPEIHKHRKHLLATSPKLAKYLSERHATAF

[10] = viability loss in THP-1 monocytes – THP-1 cells, cytotoxicity control for Vif-APOBEC3G degradation inhibitor project, dose response (AID 1117359); type: functional; conditions: THP-1
Cytochrome P450 3A4 = Cytochrome P450 3A4 (Homo sapiens, UniProt P08684); conditions: Potency;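 also: confirmatory qHTS run detecting inhibitors and substrates of CYP3A4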
Cytochrome P450 2C9 = Cytochrome P450 2C9 (Homo sapiens, UniProt P11712); conditions: Potency
Cytochrome P450 2C9, sequence (P11712 whole entry): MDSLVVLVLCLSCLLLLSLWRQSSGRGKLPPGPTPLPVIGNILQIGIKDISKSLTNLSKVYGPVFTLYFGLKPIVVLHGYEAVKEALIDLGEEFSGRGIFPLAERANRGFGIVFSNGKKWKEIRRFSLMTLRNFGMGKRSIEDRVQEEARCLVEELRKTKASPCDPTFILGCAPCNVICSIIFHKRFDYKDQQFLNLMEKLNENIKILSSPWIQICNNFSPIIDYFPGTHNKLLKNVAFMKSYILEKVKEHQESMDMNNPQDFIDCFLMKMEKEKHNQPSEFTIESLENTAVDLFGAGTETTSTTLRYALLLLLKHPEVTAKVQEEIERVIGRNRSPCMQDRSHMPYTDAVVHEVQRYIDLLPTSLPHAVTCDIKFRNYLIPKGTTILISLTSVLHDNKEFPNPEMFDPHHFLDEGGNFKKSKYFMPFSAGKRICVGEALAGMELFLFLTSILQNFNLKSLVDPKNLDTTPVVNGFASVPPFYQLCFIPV

X-box-binding protein 1, sequence (P17861 whole entry): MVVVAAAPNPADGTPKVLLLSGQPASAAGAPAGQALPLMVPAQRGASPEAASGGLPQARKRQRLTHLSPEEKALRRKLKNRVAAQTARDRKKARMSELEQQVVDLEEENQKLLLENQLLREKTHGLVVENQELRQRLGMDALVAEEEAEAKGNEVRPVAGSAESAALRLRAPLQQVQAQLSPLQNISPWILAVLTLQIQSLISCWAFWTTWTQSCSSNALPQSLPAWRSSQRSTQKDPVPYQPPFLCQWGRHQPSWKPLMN
T3 sequence (Q9UBE0 whole entry): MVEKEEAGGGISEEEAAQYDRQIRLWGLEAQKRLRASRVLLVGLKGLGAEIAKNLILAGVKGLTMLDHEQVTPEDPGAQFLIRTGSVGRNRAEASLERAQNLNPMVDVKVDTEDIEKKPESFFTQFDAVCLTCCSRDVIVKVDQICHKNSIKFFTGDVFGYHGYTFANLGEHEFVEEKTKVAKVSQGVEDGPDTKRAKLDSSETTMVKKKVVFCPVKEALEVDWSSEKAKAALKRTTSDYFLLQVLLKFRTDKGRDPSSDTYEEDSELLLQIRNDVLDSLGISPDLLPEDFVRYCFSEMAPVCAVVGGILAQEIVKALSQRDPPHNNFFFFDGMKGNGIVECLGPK
T3 sequence (Q9UBT2 whole entry): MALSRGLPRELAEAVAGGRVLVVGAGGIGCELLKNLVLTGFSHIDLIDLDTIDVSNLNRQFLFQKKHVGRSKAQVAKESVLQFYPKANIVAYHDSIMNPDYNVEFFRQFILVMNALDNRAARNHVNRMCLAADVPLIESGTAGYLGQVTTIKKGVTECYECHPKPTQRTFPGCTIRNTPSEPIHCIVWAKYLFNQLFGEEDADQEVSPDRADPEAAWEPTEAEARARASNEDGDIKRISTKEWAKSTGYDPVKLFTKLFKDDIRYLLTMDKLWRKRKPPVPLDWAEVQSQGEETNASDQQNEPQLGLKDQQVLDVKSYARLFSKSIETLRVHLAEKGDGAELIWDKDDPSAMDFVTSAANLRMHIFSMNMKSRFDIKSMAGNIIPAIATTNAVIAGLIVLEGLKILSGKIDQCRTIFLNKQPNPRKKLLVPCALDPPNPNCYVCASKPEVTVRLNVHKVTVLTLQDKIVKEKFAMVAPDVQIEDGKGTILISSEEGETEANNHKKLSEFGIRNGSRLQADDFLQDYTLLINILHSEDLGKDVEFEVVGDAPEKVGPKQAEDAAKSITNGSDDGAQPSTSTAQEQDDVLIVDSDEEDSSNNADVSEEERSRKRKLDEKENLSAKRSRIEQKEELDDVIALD
Estrogen receptor beta, sequence (Q92731 whole entry): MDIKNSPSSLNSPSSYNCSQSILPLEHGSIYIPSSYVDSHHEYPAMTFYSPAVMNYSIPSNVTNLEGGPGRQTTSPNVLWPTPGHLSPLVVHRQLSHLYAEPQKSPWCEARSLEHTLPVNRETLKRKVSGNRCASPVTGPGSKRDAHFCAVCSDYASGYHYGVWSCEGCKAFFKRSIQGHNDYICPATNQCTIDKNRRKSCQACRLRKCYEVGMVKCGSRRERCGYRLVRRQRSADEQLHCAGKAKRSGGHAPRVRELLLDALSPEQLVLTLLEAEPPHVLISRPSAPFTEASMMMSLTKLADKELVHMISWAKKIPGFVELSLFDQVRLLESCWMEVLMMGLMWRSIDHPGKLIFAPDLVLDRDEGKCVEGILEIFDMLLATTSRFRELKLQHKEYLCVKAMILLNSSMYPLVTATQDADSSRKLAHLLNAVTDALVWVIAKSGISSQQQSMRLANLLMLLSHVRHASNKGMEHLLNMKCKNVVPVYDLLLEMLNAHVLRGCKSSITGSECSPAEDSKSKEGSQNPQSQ
Cytochrome P450 3A4, sequence (P08684 whole entry): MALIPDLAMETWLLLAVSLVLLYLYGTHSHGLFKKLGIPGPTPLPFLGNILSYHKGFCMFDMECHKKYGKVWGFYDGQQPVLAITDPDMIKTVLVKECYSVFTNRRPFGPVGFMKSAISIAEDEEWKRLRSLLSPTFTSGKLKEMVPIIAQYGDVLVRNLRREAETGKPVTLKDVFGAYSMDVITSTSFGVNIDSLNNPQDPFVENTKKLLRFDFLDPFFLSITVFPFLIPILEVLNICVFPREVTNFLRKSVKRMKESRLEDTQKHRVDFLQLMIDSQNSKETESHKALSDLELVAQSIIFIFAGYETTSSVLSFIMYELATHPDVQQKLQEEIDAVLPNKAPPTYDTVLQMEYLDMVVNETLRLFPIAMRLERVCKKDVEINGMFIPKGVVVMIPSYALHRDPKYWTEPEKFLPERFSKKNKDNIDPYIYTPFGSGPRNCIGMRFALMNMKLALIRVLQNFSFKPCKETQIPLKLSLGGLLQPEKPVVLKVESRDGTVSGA
Beta-galactosidase, sequence (Q8VNN2 whole entry): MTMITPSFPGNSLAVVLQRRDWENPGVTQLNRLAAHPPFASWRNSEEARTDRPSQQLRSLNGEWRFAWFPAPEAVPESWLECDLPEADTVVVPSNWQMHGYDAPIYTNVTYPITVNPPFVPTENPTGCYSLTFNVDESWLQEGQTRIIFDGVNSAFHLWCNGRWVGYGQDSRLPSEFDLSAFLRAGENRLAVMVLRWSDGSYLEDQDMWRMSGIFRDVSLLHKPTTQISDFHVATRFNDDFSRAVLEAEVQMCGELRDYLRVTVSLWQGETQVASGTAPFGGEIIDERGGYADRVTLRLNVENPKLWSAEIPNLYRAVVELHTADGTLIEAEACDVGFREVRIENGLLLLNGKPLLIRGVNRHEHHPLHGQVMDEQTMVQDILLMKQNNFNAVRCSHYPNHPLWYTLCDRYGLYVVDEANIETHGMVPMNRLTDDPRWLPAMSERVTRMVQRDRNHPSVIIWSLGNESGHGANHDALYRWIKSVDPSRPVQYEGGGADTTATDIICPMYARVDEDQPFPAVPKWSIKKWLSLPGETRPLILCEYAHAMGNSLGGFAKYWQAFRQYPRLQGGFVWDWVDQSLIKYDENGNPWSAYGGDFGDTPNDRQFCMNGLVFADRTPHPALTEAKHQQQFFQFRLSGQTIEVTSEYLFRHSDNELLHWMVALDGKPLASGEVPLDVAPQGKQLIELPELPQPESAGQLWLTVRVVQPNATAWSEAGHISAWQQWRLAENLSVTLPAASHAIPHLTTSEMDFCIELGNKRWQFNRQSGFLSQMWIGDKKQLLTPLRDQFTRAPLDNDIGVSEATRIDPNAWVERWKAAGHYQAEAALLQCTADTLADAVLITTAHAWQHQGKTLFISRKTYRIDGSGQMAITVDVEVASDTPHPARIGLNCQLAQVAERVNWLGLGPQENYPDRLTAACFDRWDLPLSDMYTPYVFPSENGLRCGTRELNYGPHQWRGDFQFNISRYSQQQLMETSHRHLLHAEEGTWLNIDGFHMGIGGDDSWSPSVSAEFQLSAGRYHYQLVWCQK

Which EC50 (Beta-galactosidase) does the source give for `C=C1CC[C@@]2(O)[C@H]3Cc4ccc(O)c5c4[C@@]2(CCN3CC2CC2)[C@H]1O5` here?
The EC50 was > 31.5 µM (inactive).

With `COc1ccccc1C(=O)Oc1ccc(C(C)C)cc1` as the molecule, how does the “Absolute IC50 (XBP1)” value (X-box-binding protein 1) read?
The value was 10 µM.

Which IC50 (Galanin receptor type 3) does the source give for `CC(C)(C)c1ccc(-n2ncc3c2CCCC3NC(=O)C2(C(N)=O)CC2)cc1` (stereo unspecified) here?
Its IC50 is 0.408 µM (active).

And the AC50 [1]?
Its AC50 is 0.807 µM (active).

And the AC50 (INS1)?
Its AC50 is 4.11 µM (active).

And the AC50 [2]?
Its AC50 is 13.4 µM (active).

And the IC50 [3]?
Its IC50 is > 80 µM (inactive).

What about the AC50 [4] of the same molecule?
Its AC50 is 0.589 µM (active).

What about the EC50 (cells) of the same molecule?
Its EC50 is > 29.9 µM (inactive).

Which EC50 [5] does the source give for `O=C1NC(=O)C(=Cc2c[nH]c3ccc(OCc4ccccc4)cc23)C(=O)N1` here?
The EC50 was > 99 µM (inactive).

What about the EC50 [6] of the same molecule?
Its EC50 is > 99 µM (inactive).

And the IC50 (SUMO-activating enzyme [7])?
The IC50 was 20.9 µM (active).

And the IC50 (SUMO-activating enzyme [8])?
Its IC50 is 11 µM (active).

For `CCOC(=O)c1c(C)[nH]c(C(=O)COC(=O)c2[nH]c(C)c(C(C)=O)c2C)c1C`, which “Absolute IC50 (XBP1)” value (X-box-binding protein 1) is on record?
The value was 10 µM.

For `CN(C)c1ccc(NC(=O)Cn2cc3c(n2)CCCC3)cc1`, which IC50 (Estrogen receptor beta) is on record?
Its IC50 is 0.326 µM (not active).

What about the IC50 (Protein Tat) of the same molecule?
Its IC50 is > 100 µM (inconclusive).

What about the IC50 (Bcl-2-like protein 10) of the same molecule?
The IC50 was 21.8 µM (active).

What about the IC50 [9] of the same molecule?
Its IC50 is 22.1 µM (active).

What about the CC50 [10] of the same molecule?
Its CC50 is 22.2 µM (active).

What does the source list for `CC1CCC2C(=O)N3C(CCC(C)[C@H]3c3cccc(N4CCCC4=O)c3)C(=O)N2C1c1cccc(N2CCCC2=O)c1` (stereo partly specified)?
AC50 (Cytochrome P450 3A4): 2.51 µM (inconclusive); AC50 (Cytochrome P450 2C9): 2.51 µM (inconclusive)
